Measured values published in patent US4486445A, “Justicidin insecticidal and antiviral compounds” (E. I. Du Pont de Nemours and Company, priority 1983, dated 1984).
≈ marks a conversion by molar mass, not a printed value. Where two headings read alike, the source gives them in different places.

Legend:
[1] = system: Aedes egypti larvae; experiment: insecticidal activity against larvae of A. egypti in water; format: in vivo; conditions: larvae of A. egypti in H2O; for LC50: Aedes, read-out: EC50 (effective kill concentration for 50% of the experimental larvae)
Method: The insecticidal activity of the crude acetone/water extracts of Justicia extensa, prepared according to the isolation procedure described previously, was tested against laboratory cultures of the mosquito species Aedes egypti (Linnaeus) and southern army worm (SAW) Spodoptera eridania (Cramer). Extracts of leaves, branches and roots were employed in each test.
In tests against larvae of A. egypti, 10 mg of the crude plant extract was thoroughly dispersed in 20 ml of water in a test tube to which 10 first instar larvae were added.

[2] = system: Human Rhino Virus (HRV-2); experiment: inhibition of HRV-2 in HeLa cells; format: cell-based, Human rhinovirus HRV-2; conditions: Rhinovirus A; for inhibition at 0.016 µg/mL: HRV2, 0.016 μg/ml; for inhibition at 0.08 µg/mL: HRV2, 0.08 μg/ml; for inhibition at 0.4 µg/mL: HRV2, 0.4 μg/ml; for inhibition at 2 µg/mL: HRV2, 2 μg/ml; for inhibition at 10 µg/mL: HRV2, 10 μg/ml
[3] = system: A/JAX inbred mice; experiment: in vivo oral toxicity in A/JAX inbred mice; conditions: orally, 200 and 100 mg/kg
Method: In vivo toxicity studies of natural and synthetic Justicidin P produced mixed results. […] However, natural and synthetic Justicidin P were toxic to A/JAX inbred mice when administered orally at dosages of 200 and 100 mg/kg.

[4] = system: Herpes Type 1-strain VR3; experiment: plaque formation inhibition, Herpes Type 1 in HeLa cells; format: cell-based; conditions: for antiviral activity against Herpes Type 1: HeLa cells
[5] = system: Herpes Type 2-Alabama strain; experiment: plaque formation inhibition, Herpes Type 2 in HeLa cells; format: cell-based; conditions: for antiviral activity against Herpes Type 2: HeLa cells
[6] = system: HeLa cells; format: cell-based
[7] = system: IMR-90 cells; conditions: substantially similar test conditions
[8] = system: fish; conditions: in vivo, cited from earlier work
[9] = system: mosquito larvae of the species Culex pipiens pallens; conditions: mixtures with pyrethrin or allethrin; cited from earlier work

Work on `COc1cc2c(OC)c3c(c(-c4ccc5c(c4)OCO5)c2cc1OC)C(=O)OC3OC` (racemic) [Justicidin P (synthetic), (±)-9-(1,3-Benzodioxol-5-yl)-3,4,6,7-tetramethoxynaphtho[2,3-c]furan-1(3H)-one] yielded an LC50 [1] of 0.01 µg/mL (≈ 0.0236 µM), an inhibition at 0.016 µg/mL ([2]; 400 PFU) of 0% and an inhibition at 0.08 µg/mL ([2]; 400 PFU) of 0%. It also gave an inhibition at 0.4 µg/mL ([2]; 400 PFU) of 0%, an inhibition at 2 µg/mL ([2]; 400 PFU) of 73% and an inhibition at 10 µg/mL ([2]; 400 PFU) of 43%. The in vivo toxicity [3] was “toxic”.

For `COc1cc2c(OC)c3c(c(-c4ccc5c(c4)OCO5)c2cc1OC)C(=O)OC3F` (racemic) [Compound 14, (±)-9-(1,3-Benzodioxol-5-yl)-3-fluoro-4,6,7-trimethoxynaphtho[2,3-c]furan-1(3H)-one], the LC50 [1] was 0.7 µg/mL (≈ 1.7 µM), the inhibition at 0.016 µg/mL ([2]; 400 PFU) was 0% and the inhibition at 0.08 µg/mL ([2]; 400 PFU) was 0%. For the same compound, the inhibition at 0.4 µg/mL ([2]; 400 PFU) was 0%, the inhibition at 2 µg/mL ([2]; 400 PFU) was 21% and the inhibition at 10 µg/mL ([2]; 400 PFU) was 79%.

With `COc1cc2c(O)c3c(c(-c4ccc5c(c4)OCO5)c2cc1OC)C(=O)OC3` [Diphyllin, 9-(1,3-Benzodioxol-5-yl)-6,7-dimethoxy-4-hydroxynaphtho[2,3-c]furan-1(3H)-one, reference compound] the “EC50 (effective kill concentration for 50% of the experimental larvae)” value [1] was “not active”.

Work on `COc1cc2c(OC)c3c(c(-c4ccc5c(c4)OCO5)c2cc1OC)C(=O)OC3OC(C)=O` (racemic) [Compound 15] yielded an LC50 [1] of 1 µg/mL (≈ 2.21 µM), an inhibition at 0.016 µg/mL ([2]; 400 PFU) of 0% and an inhibition at 0.08 µg/mL ([2]; 400 PFU) of 0%. The inhibition at 0.4 µg/mL ([2]; 400 PFU) was 0%, the inhibition at 2 µg/mL ([2]; 400 PFU) was 0% and the inhibition at 10 µg/mL ([2]; 400 PFU) was 72%.

For `CCCCCCCSC1OC(=O)c2c1c(OC)c1cc(OC)c(OC)cc1c2-c1ccc2c(c1)OCO2` (stereo not drawn) [Compound 18], the inhibition at 1 µg/mL ([4]; 1 μg/ml, HeLa, read-out: inhibition against Type 1) was 17%, the inhibition at 4 µg/mL ([4]; 4 μg/ml, HeLa, read-out: inhibition against Type 1) was 81% and the “antiviral activity against Herpes Type 1” value [4] was “demonstrated antiviral activity”. The inhibition at 1 µg/mL ([5]; 1 μg/ml, HeLa, read-out: inhibition against Type 2) was 16%, the inhibition at 4 µg/mL ([5]; 4 μg/ml, HeLa, read-out: inhibition against Type 2) was 77% and the “antiviral activity against Herpes Type 2” value [5] was “demonstrated antiviral activity”. For the same compound, the cytotoxicity ([6]; 64 and 16 μg/ml) was “cytotoxic”, the inhibition at 0.016 µg/mL ([2]; 200 PFU) was 80% and the inhibition at 0.08 µg/mL ([2]; 200 PFU) was at least 100%. It also gave an inhibition at 0.4 µg/mL ([2]; 200 PFU) of at least 100%.

In the case of `Nc1nc2c(ncn2COCCO)c(=O)[nH]1` [acyclovir, 9-(2-hydroxy-ethoxymethyl)guanine, reference compound], the inhibition at 8 µg/mL ([4]; HeLa, 8 μg/ml, similar test conditions) was 90%, the “inhibition of Type 2 plaque formation” value ([5]; range between 0.5 μg/ml and 8 μg/ml, similar test conditions) was 90-99% and the inhibition at 0.016 µg/mL ([2]; 400 PFU) was 0%. It also gave an inhibition at 0.08 µg/mL ([2]; 400 PFU) of 0%, an inhibition at 0.4 µg/mL ([2]; 400 PFU) of 0% and an inhibition at 2 µg/mL ([2]; 400 PFU) of 0%. For the same compound, the inhibition at 10 µg/mL ([2]; 400 PFU) was 0% and the “sensitivity of IMR-90 cells” value [7] was “sensitive”.

For `COc1cc2cc3c(c(-c4ccc5c(c4)OCO5)c2cc1OC)C(=O)OC3` [Justicidin B], the piscicidal activity [8] is given as “extraordinary piscicidal activity”, the piscicidal activity ([8]; listed as B) is given as “active piscicidal components” and the synergistic behavior [9] is given as “synergistic behavior was observed”.

In the case of `CCCOC1OC(=O)c2c1c(OC)c1cc(OC)c(OC)cc1c2-c1ccc2c(c1)OCO2` (racemic) [Compound 17, (±)-9-(1,3-Benzodioxol-5-yl)-3-propoxy-4,6,7-trimethoxynaphtho[2,3-c]furan-1(3H)-one], the LC50 [1] was 0.8 µg/mL (≈ 1.77 µM), the inhibition at 0.1 µg/mL ([4]; 0.1 μg/ml, HeLa, read-out: plaque formation inhibition against Type 1 (average)) was 71% and the “antiviral activity against Herpes Type 1” value [4] was “demonstrated antiviral activity”. The inhibition at 0.1 µg/mL ([5]; 0.1 μg/ml, HeLa, read-out: plaque formation inhibition against Type 2 (average)) was 91%, the “antiviral activity against Herpes Type 2” value [5] was “demonstrated antiviral activity” and the cytotoxicity ([6]; 1 μg/ml) was “cytotoxic”. It also gave an inhibition at 0.016 µg/mL ([2]; 200 PFU) of at least 100%, an inhibition at 0.08 µg/mL ([2]; 200 PFU) of at least 100% and an inhibition at 0.4 µg/mL ([2]; 200 PFU) of at least 100%. For the same compound, the inhibition at 2 µg/mL ([2]; 200 PFU) was at least 74%.

For `COc1cc2c(OC)c3c(c(-c4ccc5c(c4)OCO5)c2cc1OC)C(=O)OC3OC(C)C` (stereo not drawn) [Compound 19], the LC50 [1] was 0.7 µg/mL (≈ 1.55 µM), the cytotoxicity ([6]; 1, 4, 16 and 64 μg/ml) was “demonstrated cytotoxic properties” and the inhibition at 0.016 µg/mL ([2]; 200 PFU) was 100%. It also gave an inhibition at 0.08 µg/mL ([2]; 200 PFU) of at least 100%, an inhibition at 0.4 µg/mL ([2]; 200 PFU) of 107% and an inhibition at 2 µg/mL ([2]; 200 PFU) of 14%.

In the case of `COc1cc2c(OC)c3c(c(-c4ccc5c(c4)OCO5)c2cc1OC)C(=O)OC3` [Justicidin A, 9-(1,3-Benzodioxol-5-yl)-4,6,7-trimethoxynaphtho[2,3-c]furan-1(3H)-one], the LC50 [1] is listed as 10 µg/mL (≈ 25.4 µM), the piscicidal activity [8] is listed as “extraordinary piscicidal activity” and the piscicidal activity ([8]; listed as justicidins A) is listed as “active piscicidal components”. For the same compound, the synergistic behavior [9] was “synergistic behavior was observed”.

For `COc1cc2c(OC)c3c(c(-c4ccc5c(c4)OCO5)c2cc1OC)C(=O)OC3O` (racemic) [Compound 16, (±)-9-(1,3-Benzodioxol-5-yl)-3-hydroxy-4,6,7-trimethoxynaphtho[2,3-c]furan-1(3H)-one], the LC50 [1] was 10 µg/mL (≈ 24.4 µM), the inhibition at 0.016 µg/mL ([2]; 400 PFU) was 0% and the inhibition at 0.08 µg/mL ([2]; 400 PFU) was 0%. The inhibition at 0.4 µg/mL ([2]; 400 PFU) was 0%, the inhibition at 2 µg/mL ([2]; 400 PFU) was 0% and the inhibition at 10 µg/mL ([2]; 400 PFU) was 98%.

Compound `CCCCCCCCCCCCOC1OC(=O)c2c1c(OC)c1cc(OC)c(OC)cc1c2-c1ccc2c(c1)OCO2` (stereo not drawn) [Compound 20] has an inhibition at 0.016 µg/mL ([2]; 200 PFU) of 0%, an inhibition at 0.08 µg/mL ([2]; 200 PFU) of 0% and an inhibition at 0.4 µg/mL ([2]; 200 PFU) of 10%. It also gave an inhibition at 2 µg/mL ([2]; 200 PFU) of 74% and an inhibition at 10 µg/mL ([2]; 200 PFU) of 83%.
